Reference: patent publication US20170367338A1, “COMPOSITIONS AND METHODS FOR IMPROVING AGRONOMIC CHARACTERISTICS OF PLANTS” (MONSANTO TECHNOLOGY LLC, priority 2014, published 2017)
In brackets after ≈: the same amount, converted by molar mass. Read-outs that look alike come from different tables or passages of the source.

Experiments:
[1] = test system: Meloidogyne incognita; assay: M. incognita miniaturized greenhouse assay on cucumber seedlings; assay type: in vivo; settings: 1 ppm; Table 1C test a
How it was run: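 Compound in acetone/Triton X100 diluted into water with 0.015% Triton X100, applied to sand vials holding 3-day cucumber sprouts; 500 M. incognita eggs inoculated two days after planting. Roots rated 10–12 days post-inoculation for % galling (0–3 scale, triplicate mean) plus visual root-stunting phytotoxicity.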

[2] = assay type: in vivo; settings: three female mice, observed up to 14 days
Protocol: Acute oral toxicity testing was performed in mice in accordance with test method P203.UDP, as administered by Eurofins/Product Safety Laboratories (Dayton, New Jersey). CD-1/Swiss derived albino mice were obtained and group housed in suspended solid bottom caging. The mice were fed rodent chow and filtered tap water was supplied ad libitum. Following acclimation to the laboratory setting, a group of animals was fasted overnight by removing food from the cages. After the fasting period, three female mice were selected based on vitality and initial body weights. The individual compound doses were calculated from these body weights.
The test substance was prepared as a 1% (50 mg/kg) or 5% (500 mg/kg) weight to weight (w/w) mixture in a 0.5% w/w solution of carboxymethylcellulose (CMC) in distilled water. A tissue homogenizer was used to create a homogeneous mixture. A dose of 50 or 500 mg/kg was administered to three healthy mice per dose level by oral intubation using a ball-tipped gavage needle attached to a syringe. After administration, the animals were returned to their cages, and feed was replaced immediately after dosing.
Body weights were recorded prior to initiation and on Days 7 and 14 or a soon as possible after death.

[3] = test system: root knot nematode (RKN); assay: RKN greenhouse soil assay on cucumber plants; assay type: in vivo; settings: Radex emulsifiable concentrate formulation (6.25% active ingredient)
[4] = test system: C. elegans; assay: Three day C. elegans well assay; assay type: in vivo; settings: Caenorhabditis elegans
How it was run: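 Contact assay in wells: DMSO dilutions (4 ul from 100× stocks at 10 mg/ml) with bacterial feed in M9 buffer plus ampicillin and nystatin. L1 (starvation-arrested) or L4 worms added, shaken at 20° C. Scored at 4, 24, 48 and 72 hours.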

[5] = test system: Meloidogyne incognita; assay: Summer field evaluation of pre-plant incorporated compounds on squash; assay type: in vivo; settings: 4 kg/ha
How it was run: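 Compound in acetone/Triton X-100 emulsion mixed into sand/silt loam with galled tomato roots, filling top 15 cm of field plots (pre-plant incorporated), 6 replicates. Plots inoculated with 100k M. incognita eggs/larvae at 5 cm depth. Squash cv. Liberator III transplanted 4 days after treatment.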

[6] = test system: Caenorhabditis elegans ced-3(n717) and ced-4(N1162) mutants; assay: Susceptibility of C. elegans apoptosis mutants on NGM agar plates; assay type: in vivo; settings: 10μg/ml on NGM agar plates

| SMILES | 1 ppm gall rating [1] | acute oral toxicity: mortality and signs ([2]; 50 mg/kg oral) | acute oral toxicity: mortality and signs ([2]; 500 mg/kg oral) | percent control (galling reduction), Radex 1 mg/kg [3] | EC50 ([4]; 24 h, L1 larvae, one day of exposure, read-out: EC50 L1 1D) | EC50 ([4]; 24 h, L4 larvae, one day of exposure, read-out: EC50 L4 1D) | EC50 ([4]; 48 h, L1 larvae, two days of exposure, read-out: EC50 L1 2D) | EC50 ([4]; 48 h, L4 larvae, two days of exposure, read-out: EC50 L4 2D) | EC50 ([4]; 72 h, L1 larvae, three days of exposure, read-out: EC50 L1 3D) | EC50 ([4]; 72 h, L4 larvae, three days, effects on the second generation larvae, read-out: EC50 L4 3D (F1)) | control of M. incognita by PPI application [5] | susceptibility of ced-3 and ced-4 mutants versus wild-type C. elegans (N2 Bristol), including time to mortality [6] |
| --- | --- | --- | --- | --- | --- | --- | --- | --- | --- | --- | --- | --- |
| c1ccc(-c2noc(-c3cccs3)n2)cc1 [compound 1822] | 0 (0=0-5%) | all animals survived | all animals died within three days | 98% |  |  |  |  |  |  |  |  |
| Cc1cc(Cl)ccc1-c1noc(-c2ccco2)n1 [compound 5823] |  |  |  |  | 0.4 µg/mL (≈ 1.53 µM) | 1.6 µg/mL (≈ 6.14 µM) | 0.4 µg/mL (≈ 1.53 µM) | 0.4 µg/mL (≈ 1.53 µM) | 0.4 µg/mL (≈ 1.53 µM) | 0.4 µg/mL (≈ 1.53 µM) | excellent control | No observable phenotypic difference in susceptibility |
